Format in all cases: biochemical
For test [1], the target named is T1, mICE (Mus musculus, UniProt P29452).
T1 sequence (P29452 123-296 limits assumed): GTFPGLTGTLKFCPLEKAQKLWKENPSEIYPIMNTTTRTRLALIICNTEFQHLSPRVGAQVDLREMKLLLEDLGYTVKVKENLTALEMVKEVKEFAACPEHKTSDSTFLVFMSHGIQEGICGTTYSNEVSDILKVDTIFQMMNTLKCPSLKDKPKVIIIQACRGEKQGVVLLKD
T1 sequence (P29452 315-402 limits assumed): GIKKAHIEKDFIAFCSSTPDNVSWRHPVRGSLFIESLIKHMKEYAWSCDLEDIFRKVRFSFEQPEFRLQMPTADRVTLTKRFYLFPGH
Nature of the test: Fluorescence enzyme assay, determination of IC50 values (ICE). As to conditions: recombinant enzyme, 30 min preincubation, substrate Acetyl-Tyr-Val-Ala-Asp-AMC, room temperature. The protocol: (§1) Fluorescence enzyme assays detecting the activity of the compounds of Formula I utilizing the recombinant ICE and CPP32 enzymes are performed essentially according to Thornberry et al. (Nature, 356:768:774 (1992)) and Nicholson et al. (Nature, 376:37–43 (1995)) respectively, (herein incorporated by reference) in 96 well microtiter plates. The substrate is Acetyl-Tyr-Val-Ala-Asp-amino-4-methylcoumarin (AMC) for the ICE assay and Acetyl-Asp-Glu-Val-Asp-amino-4-methylcoumarin for the CPP32, Mch2, Mch3 and Mch5 assays. Enzyme reactions are run in ICE buffer (25 mM HEPES, 1 mM EDTA, 0.1% CHAPS, 10% sucrose, pH 7.5) containing 2 mM DTT at room temperature in duplicate.
(§2) The enzyme and the compound of Formula I to be assayed are allowed to preincubate in the microtitre plate wells for 30 minutes at room temperature prior to the addition of substrate to initiate the reaction. Fluorescent AMC product formation is monitored for one hour at room temperature by measuring the fluorescence emission at 460 nm using an excitation wavelength of 360 nm.
(§3) The reference compound for this assay was Cbz-ValAlaAsp-H and the values are denoted in Table 1 as “Reference”.

In test [2] the target is T2, MCH-2 (Homo sapiens, UniProt P55212).
T2 sequence (P55212 24-179 limits assumed): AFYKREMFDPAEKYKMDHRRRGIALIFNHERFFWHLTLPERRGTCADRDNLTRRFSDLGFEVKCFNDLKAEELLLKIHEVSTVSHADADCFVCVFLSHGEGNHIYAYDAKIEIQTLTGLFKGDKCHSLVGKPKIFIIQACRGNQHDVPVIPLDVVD
T2 sequence (P55212 194-293 limits assumed): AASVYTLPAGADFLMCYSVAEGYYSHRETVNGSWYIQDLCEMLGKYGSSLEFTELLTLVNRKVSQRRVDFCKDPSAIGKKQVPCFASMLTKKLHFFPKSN
Kind of test: Fluorescence enzyme assay, determination of IC50 values (Mch2). As to conditions: 30 min preincubation, substrate Acetyl-Asp-Glu-Val-Asp-AMC, room temperature. The protocol: as §1, §2, §3

Test [3] has as its target T3, CPP32 (Homo sapiens, UniProt P42574).
T3 sequence (P42574 29-175 limits assumed): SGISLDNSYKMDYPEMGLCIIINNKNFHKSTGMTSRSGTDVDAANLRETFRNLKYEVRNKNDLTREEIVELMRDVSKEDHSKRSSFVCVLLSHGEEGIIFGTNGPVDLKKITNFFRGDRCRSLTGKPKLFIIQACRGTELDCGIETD
T3 sequence (P42574 176-277 limits assumed): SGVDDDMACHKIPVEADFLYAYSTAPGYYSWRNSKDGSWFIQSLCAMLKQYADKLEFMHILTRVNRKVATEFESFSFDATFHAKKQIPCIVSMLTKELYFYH
Nature of the test: Fluorescence enzyme assay, determination of IC50 values (CPP32). The settings on record: recombinant enzyme, 30 min preincubation, substrate Acetyl-Asp-Glu-Val-Asp-AMC, room temperature. Here is the method:
as §1, §2, §3

The target of a further test is T4, MCH-3 (Homo sapiens, UniProt P55210).
T4 sequence (P55210 24-198 limits assumed): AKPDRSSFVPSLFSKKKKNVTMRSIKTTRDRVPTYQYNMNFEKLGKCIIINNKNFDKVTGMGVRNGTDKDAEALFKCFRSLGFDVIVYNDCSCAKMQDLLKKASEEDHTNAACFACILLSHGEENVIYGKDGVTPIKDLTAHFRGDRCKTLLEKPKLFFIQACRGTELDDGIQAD
T4 sequence (P55210 207-303 limits assumed): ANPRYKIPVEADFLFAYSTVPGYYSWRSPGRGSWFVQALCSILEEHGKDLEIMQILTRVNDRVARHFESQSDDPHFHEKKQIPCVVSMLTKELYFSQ
Nature of the test: Fluorescence enzyme assay, determination of IC50 values (Mch3). The settings on record: 30 min preincubation, substrate Acetyl-Asp-Glu-Val-Asp-AMC, room temperature. The protocol:
as §1, §2, §3

The target of test [4] is T5, MCH-5 (Homo sapiens, UniProt Q14790). Kind of test: Fluorescence enzyme assay, determination of IC50 values (Mch5). The settings on record: 30 min preincubation, substrate Acetyl-Asp-Glu-Val-Asp-AMC, room temperature. Here is the method: The substrate is Acetyl-Tyr-Val-Ala-Asp-amino-4-methylcoumarin (AMC) for the ICE assay and Acetyl-Asp-Glu-Val-Asp-amino-4-methylcoumarin for the CPP32, Mch2, Mch3 and Mch5 assays. Enzyme reactions are run in ICE buffer (25 mM HEPES, 1 mM EDTA, 0.1% CHAPS, 10% sucrose, pH 7.5) containing 2 mM DTT at room temperature in duplicate.
as §2, §3

The target of test [5] is T1, mICE. Kind of test: Dissociation constant Ki and irreversible rate constant k3 for irreversible inhibitors (ICE). As to conditions: continuous assay 60 min, reaction initiated by adding enzyme to substrate-inhibitor mixture.
The target in test [6] is T3, CPP32. Nature of the test: Dissociation constant Ki and irreversible rate constant k3 for irreversible inhibitors (CPP32). The settings on record: continuous assay 60 min, reaction initiated by adding enzyme to substrate-inhibitor mixture.
For test [7], the target named is T5, MCH-5. Kind of test: Dissociation constant Ki and irreversible rate constant k3 for irreversible inhibitors (Mch5). The settings on record: continuous assay 60 min, reaction initiated by adding enzyme to substrate-inhibitor mixture.
Test [8] deals with T2, MCH-2. Nature of the test: Dissociation constant Ki and irreversible rate constant k3 for irreversible inhibitors (Mch2). The settings on record: continuous assay 60 min, reaction initiated by adding enzyme to substrate-inhibitor mixture.

Data on 11 compounds can be found in patent US7183260B2, “C-terminal modified oxamyl dipeptides as inhibitors of the ICE/ced-3 family of cysteine proteases” (Idun Pharmaceuticals, Inc., priority 1998, dated 2007).

Where a SMILES comes first, the peptide text is derived from it. The star is where a group is joined. Cbz = O=C(OCc1ccccc1)*; CH2F = FC* A value given as a limit tells only on which side of the number the result lay.

The IC50 is the midpoint of a concentration-inhibition curve.

T5 sequence (Q14790 217-374 limits assumed, species assumed): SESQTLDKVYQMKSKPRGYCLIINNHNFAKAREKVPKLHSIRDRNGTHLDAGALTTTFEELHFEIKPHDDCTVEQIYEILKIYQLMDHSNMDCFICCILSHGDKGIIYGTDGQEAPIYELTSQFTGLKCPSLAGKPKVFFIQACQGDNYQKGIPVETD
T5 sequence (Q14790 385-479 limits assumed, species assumed): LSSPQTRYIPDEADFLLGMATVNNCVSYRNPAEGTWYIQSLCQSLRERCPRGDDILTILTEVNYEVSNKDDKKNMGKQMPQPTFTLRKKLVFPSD

On to `CC(C)C[C@H](NC(=O)C(=O)Nc1cccc2ccccc12)C(=O)N[C@H](C=O)CC(=O)O` [Example 1, (3S)-3-[N-(N′-(1-NAPHTHYL)OXAMYL)LEUCINYL]AMINO-4-OXOBUTANOIC ACID], for which the half-maximal inhibitory concentration (IC50) was 27 nM on mICE [1]; 1500 nM against MCH-2 [2]; 0.01 µM at CPP32 [3]; 267 nM on MCH-3; 179 nM against MCH-5 [4].
Take `CC(C)[C@H](NC(=O)C(=O)Nc1c(F)c(F)nc(F)c1F)C(=O)N[C@@H](CC(=O)O)C(=O)COc1c(F)c(F)cc(F)c1F` [Example 102]: at mICE [5], the Ki was 14 nM and the “mICE k3/Ki” value is recorded as 1,220,000 moles^−1 seconds^−1. Also, at CPP32 [6], the “CPP32 k3/Ki” value was 153,000 moles^−1 seconds^−1 and the Ki worked out at 127 nM. Moreover, on MCH-5 [7], the Ki is 10 nM and the “MCH-5 k3/Ki” value is 389,000 moles^−1 seconds^−1. For the same compound, on MCH-2 [8], the Ki was 22 nM and the “MCH-2 k3/Ki” value is on record as 170,000 moles^−1 seconds^−1.
As to `CC(C)[C@H](NC(=O)C(=O)Nc1cnccn1)C(=O)N[C@@H](CC(=O)O)C(=O)COc1c(F)c(F)cc(F)c1F` [Example 103], the Ki on mICE [5] was determined as 5.3 nM; on CPP32 [6] it was 60 nM; on MCH-5 [7] it was 4.7 nM; at MCH-2 [8], 17 nM.
As for `CC(C)[C@H](NC(=O)C(=O)NC1CCCc2ccccc21)C(=O)N[C@@H](CC(=O)O)C(=O)COc1c(F)c(F)cc(F)c1F` (stereo partly drawn) [Example 104], at mICE [5], the Ki is 4.5 nM and the “mICE k3/Ki” value is on record as 2,320,000 moles^−1 seconds^−1. Besides, at CPP32 [6], the “CPP32 k3/Ki” value was 98,600 moles^−1 seconds^−1 and the Ki was found to be 84 nM. At MCH-5 [7], the Ki turned out to be 5.2 nM and the “MCH-5 k3/Ki” value is recorded as 456,000 moles^−1 seconds^−1. Further, at MCH-2 [8], the Ki turned out to be 13 nM and the “MCH-2 k3/Ki” value is reported as 160,000 moles^−1 seconds^−1.
Regarding `CC(C)[C@H](NC(=O)C(=O)Nc1ccccc1Cl)C(=O)N[C@@H](CC(=O)O)C(=O)COc1c(F)c(F)cc(F)c1F` [Example 105], on mICE [5], the Ki stood at 8.4 nM and the “mICE k3/Ki” value is 1,540,000 moles^−1 seconds^−1. Besides, on CPP32 [6], the “CPP32 k3/Ki” value was 96,300 moles^−1 seconds^−1 and the Ki came out at 122 nM. In addition, on MCH-5 [7], the Ki was found to be 52 nM and the “MCH-5 k3/Ki” value is reported as 234,000 moles^−1 seconds^−1. Besides, on MCH-2 [8], the Ki is 26 nM and the “MCH-2 k3/Ki” value is given as 161,000 moles^−1 seconds^−1.
As to `CC(C)[C@H](NC(=O)C(=O)Nc1ccccc1Br)C(=O)N[C@@H](CC(=O)O)C(=O)COc1c(F)c(F)cc(F)c1F` [Example 106], on mICE [5], the Ki is 9 nM and the “mICE k3/Ki” value is on record as 1,080,000 moles^−1 seconds^−1. Besides, at CPP32 [6], the “CPP32 k3/Ki” value is reported as 276,000 moles^−1 seconds^−1 and the Ki was found to be 63 nM. On MCH-5 [7], the Ki was found to be 3.4 nM and the “MCH-5 k3/Ki” value is 1,305,000 moles^−1 seconds^−1. At MCH-2 [8], the Ki amounted to 19 nM and the “MCH-2 k3/Ki” value is given as 230,000 moles^−1 seconds^−1.
For the compound `CC(C)[C@H](NC(=O)C(=O)Nc1ccccc1I)C(=O)N[C@@H](CC(=O)O)C(=O)COc1c(F)c(F)cc(F)c1F` [Example 107], on mICE [5], the Ki was found to be 7 nM and the “mICE k3/Ki” value is 1,260,000 moles^−1 seconds^−1. Moreover, at CPP32 [6], the “CPP32 k3/Ki” value is 42,300 moles^−1 seconds^−1 and the Ki turned out to be 510 nM. For the same compound, on MCH-5 [7], the Ki was 4 nM and the “MCH-5 k3/Ki” value was 1,026,000 moles^−1 seconds^−1. Besides, at MCH-2 [8], the Ki amounted to 20 nM and the “MCH-2 k3/Ki” value was 137,000 moles^−1 seconds^−1.
For the compound `CC(C)[C@H](NC(=O)C(=O)Nc1c(F)cccc1F)C(=O)N[C@@H](CC(=O)O)C(=O)COc1c(F)c(F)cc(F)c1F` [Example 108], at mICE [5], the Ki amounted to 4.8 nM and the “mICE k3/Ki” value is 2,680,000 moles^−1 seconds^−1. Moreover, at CPP32 [6], the “CPP32 k3/Ki” value is reported as 62,900 moles^−1 seconds^−1 and the Ki was 102 nM. Besides, at MCH-5 [7], the Ki was found to be 1.9 nM and the “MCH-5 k3/Ki” value was 1,830,000 moles^−1 seconds^−1. On MCH-2 [8], the Ki came to 8 nM and the “MCH-2 k3/Ki” value is on record as 1,083,000 moles^−1 seconds^−1.
For `CC(C)[C@H](NC(=O)C(=O)Nc1cc(C(C)(C)C)ccc1C(C)(C)C)C(=O)N[C@@H](CC(=O)O)C(=O)COc1c(F)c(F)cc(F)c1F` [Example 109], on mICE [5], the Ki was found to be 25 nM and the “mICE k3/Ki” value is on record as 767,000 moles^−1 seconds^−1. At CPP32 [6], the “CPP32 k3/Ki” value is recorded as 70,600 moles^−1 seconds^−1 and the Ki amounted to 193 nM. Moreover, on MCH-5 [7], the Ki came out at 34 nM and the “MCH-5 k3/Ki” value was 51,300 moles^−1 seconds^−1. In addition, at MCH-2 [8], the Ki amounted to 232 nM and the “MCH-2 k3/Ki” value was 8,230 moles^−1 seconds^−1.
As for `CC(NC(=O)C(NC(=O)OCc1ccccc1)C(C)C)C(=O)NC(CC(=O)O)C(=O)CF` (stereo not drawn) [refer., Cbz-ValAlaAsp-CH2F, reference compound] (Cbz-Val-Ala-Asp-CH2F; configuration not given here), at mICE [5], the Ki came to 15 nM and the “mICE k3/Ki” value was 214,000 moles^−1 seconds^−1. In addition, at CPP32 [6], the “CPP32 k3/Ki” value is 12,200 moles^−1 seconds^−1 and the Ki stood at 820 nM. In addition, at MCH-5 [7], the Ki was 18 nM and the “MCH-5 k3/Ki” value is 83,300 moles^−1 seconds^−1. Further, at MCH-2 [8], the Ki is 594 nM and the “MCH-2 k3/Ki” value is 2,950 moles^−1 seconds^−1.
For `CC(C)[C@H](NC(=O)OCc1ccccc1)C(=O)N[C@@H](C)C(=O)N[C@H](C=O)CC(=O)O` [reference, Cbz-ValAlaAsp-H, reference compound] (Cbz-Val-Ala-Asp-aldehyde), the IC50 on mICE [1] was 64 nM; at MCH-2 [2], above 10000 nM; at CPP32 [3] it was 47 µM; against MCH-3, above 10000 nM; at MCH-5 [4], 2960 nM.
